Earlier results, collected in patent US20260355228A1, “TREATMENT OF FAMILIAL ADENOMATOUS POLYOPSIS USING A 13-MEMBERED MACROLIDE” (ZIKANI THERAPEUTICS, INC., priority 2022, published 2026).

Legend:
[1] = tested on: APC gene nonsense mutations in colorectal cancer cell lines; details: colorectal cancer cell lines [23, 24]
[2] = tested on: human colorectal xenografts possessing APC nonsense mutations; details: xenografts possessing APC nonsense mutations [23, 24]
[3] = tested on: mouse model of FAP; details: mouse model of FAP [23, 24]
[4] = tested on: FAP patients harboring APC nonsense mutations; details: clinical study, FAP patients [25]
[5] = tested on: APC (SW1417 colon carcinoma cells); details: SW1417 cells [23]
[6] = tested on: APC gene nonsense mutations in in vivo colon carcinoma models; details: in vivo colon carcinoma models [23]
[7] = tested on: APC L360X stop codon; details: luciferase based reporter vector [40]

For `CC[C@H]1OC(=O)[C@H](C)[C@@H](O[C@H]2C[C@@](C)(OC)[C@@H](O)[C@H](C)O2)[C@H](C)[C@@H](O[C@@H]2O[C@H](C)C[C@H](N(C)C)[C@H]2O)[C@](C)(O)C[C@@H](C)C(=O)[C@H](C)[C@@H](O)[C@]1(C)O` [erythromycin], the “suppression of nonsense mutations / translation termination in the APC gene” value [1] is given as “suppressed nonsense mutations in the APC gene in human colon carcinoma cells”, the “in vivo growth of human colorectal xenografts” value [2] is given as “inhibited the in vivo growth of human colorectal xenografts” and the “number of intestinal polyps” value [3] is given as “reduced the number of intestinal polyps”. The adenoma burden [4] was “decrease in adenoma burden”.
For `CC[C@H]1OC(=O)C[C@@H](O)[C@H](C)[C@@H](O[C@@H]2O[C@H](C)[C@@H](O[C@H]3C[C@@](C)(O)[C@@H](O)[C@H](C)O3)[C@H](N(C)C)[C@H]2O)[C@@H](CC=O)C[C@@H](C)C(=O)/C=C/C(C)=C/[C@@H]1CO[C@@H]1O[C@H](C)[C@@H](O)[C@@H](OC)[C@H]1OC` [tylosin], the “suppression of nonsense mutations / translation termination in the APC gene” value [1] is given as “can suppress translation termination generated by nonsense mutations in the APC gene”, the “read-through of the nonsense mutation leading to synthesis of full-length, active APC protein” value [5] is given as “low level of full-length, active APC protein” and the “suppression of translation termination generated by nonsense mutations in the APC gene” value [6] is given as “can suppress translation termination generated by nonsense mutations in the APC gene”.
In the case of gentamicin, the “suppression of nonsense mutations / translation termination in the APC gene” value [1] is listed as “suppressed nonsense mutations in the APC gene in human colon carcinoma cells”, the “in vivo growth of human colorectal xenografts” value [2] is listed as “inhibited the in vivo growth of human colorectal xenografts” and the “number of intestinal polyps” value [3] is listed as “reduced the number of intestinal polyps”. For the same compound, the “susceptibility of the L360X stop codon to read-through” value [7] was “most susceptible”.
